The subject of assay [1] is A549 cells. In words: Inhibition of cancer cell growth, MTT assay, A549. In kind it is cell-based. The conditions noted are these: Homo sapiens, A549, 72 h exposure. An outline of the steps:
(§1)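 Cells grown in RPMI 1640 with 10% FBS were seeded at about 4000 cells/well, left 24 h, then exposed to compound for 72 h (1% DMSO final). MTT absorbance at 570 nm was compared with viable cells at time of addition to give growth inhibition; IC50 from concentration–inhibition plots, triplicates.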
In general terms: Tetrazolium assays rely on reduction of a dye to a coloured formazan, in cell work by metabolically active cells.

In assay [2] the target is BRAF (Homo sapiens (Human), UniProt P15056). The experiment in a line: Z′-LYTE kinase inhibition assay (Invitrogen), BRAF. Type of assay: biochemical. The conditions noted are these: 1 μM compound, Z′-LYTE method; read-out: % inhibition at 1 μM against BRAF.
The target in assay [3] is BRAF V600E (Homo sapiens (Human), UniProt P15056, V600E). In words: Z′-LYTE kinase inhibition assay (Invitrogen), BRAF V600E. In kind it is biochemical. The conditions noted are these: Z′-LYTE method. In short, it runs like this:
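FRET-based Z′-LYTE peptide phosphorylation format in 50 mM HEPES pH 7.5, 0.01% BRIJ-35, 10 mM MgCl2, 1 mM EGTA with ATP. Kinase reaction 60 min at room temperature, then protease development step 60 min at room temperature before fluorescence read. IC50 from compound concentration versus percent inhibition.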

In assay [4] the target is KDR (VEGFR2) (Homo sapiens (Human), UniProt P35968). The experiment in a line: Z′-LYTE kinase inhibition assay (Invitrogen), KDR. Type of assay: biochemical. The conditions noted are these: Z′-LYTE method. An outline of the steps: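 Z′-LYTE FRET assay: 10 μL reactions with 0.5–11.7 ng KDR and 2 μM Tyr 01 peptide in 50 mM HEPES pH 7.5, 10 mM MgCl2, 1 mM EGTA, 0.01% BRIJ-35, 1 h at room temperature. Development Reagent B (1:256) added for 60 min, fluorescence read; IC50 from concentration–inhibition curves.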

Assay [5] deals with A375 cells. In words: Inhibition of cancer cell growth, MTT assay, A375. The conditions noted are these: Homo sapiens, A-375, 72 h exposure. In kind it is cell-based. An outline of the steps:
as §1

A value given as a limit tells only on which side of the number the result lay.

Chain of KDR (VEGFR2) (P35968 20-1356): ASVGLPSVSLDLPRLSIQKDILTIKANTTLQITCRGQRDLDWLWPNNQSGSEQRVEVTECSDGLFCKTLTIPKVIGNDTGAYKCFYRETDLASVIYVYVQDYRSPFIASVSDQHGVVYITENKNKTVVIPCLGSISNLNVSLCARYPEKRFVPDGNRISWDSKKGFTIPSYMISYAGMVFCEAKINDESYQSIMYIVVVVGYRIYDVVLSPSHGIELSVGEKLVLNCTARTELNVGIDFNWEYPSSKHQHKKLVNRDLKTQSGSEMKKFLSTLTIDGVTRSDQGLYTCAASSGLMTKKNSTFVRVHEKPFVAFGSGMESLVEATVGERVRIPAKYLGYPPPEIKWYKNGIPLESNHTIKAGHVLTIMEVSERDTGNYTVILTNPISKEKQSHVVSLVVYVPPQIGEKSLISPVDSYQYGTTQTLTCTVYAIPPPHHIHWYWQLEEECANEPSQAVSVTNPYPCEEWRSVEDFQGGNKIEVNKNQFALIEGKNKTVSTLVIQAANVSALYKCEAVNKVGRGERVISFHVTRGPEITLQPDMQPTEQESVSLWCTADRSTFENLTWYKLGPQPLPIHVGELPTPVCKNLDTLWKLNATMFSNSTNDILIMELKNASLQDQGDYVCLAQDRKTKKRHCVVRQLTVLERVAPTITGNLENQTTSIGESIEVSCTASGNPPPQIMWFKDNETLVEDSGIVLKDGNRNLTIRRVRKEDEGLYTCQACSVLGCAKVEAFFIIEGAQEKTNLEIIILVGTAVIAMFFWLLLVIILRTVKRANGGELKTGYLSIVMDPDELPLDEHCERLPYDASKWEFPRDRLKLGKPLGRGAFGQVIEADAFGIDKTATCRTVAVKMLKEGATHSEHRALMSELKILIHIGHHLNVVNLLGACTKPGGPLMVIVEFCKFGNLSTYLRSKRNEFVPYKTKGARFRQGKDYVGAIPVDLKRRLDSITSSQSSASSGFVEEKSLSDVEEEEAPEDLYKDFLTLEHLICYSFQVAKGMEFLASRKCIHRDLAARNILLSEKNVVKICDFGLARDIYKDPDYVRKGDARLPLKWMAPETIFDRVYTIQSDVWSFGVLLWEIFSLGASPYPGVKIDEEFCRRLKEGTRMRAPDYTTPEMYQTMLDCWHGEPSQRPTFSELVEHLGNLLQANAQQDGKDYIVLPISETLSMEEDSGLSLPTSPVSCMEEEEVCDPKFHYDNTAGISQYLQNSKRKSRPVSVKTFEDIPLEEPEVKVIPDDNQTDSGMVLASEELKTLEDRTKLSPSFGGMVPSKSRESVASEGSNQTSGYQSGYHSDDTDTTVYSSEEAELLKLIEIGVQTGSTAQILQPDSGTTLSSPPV
Chain of BRAF V600E (P15056 whole entry V600E): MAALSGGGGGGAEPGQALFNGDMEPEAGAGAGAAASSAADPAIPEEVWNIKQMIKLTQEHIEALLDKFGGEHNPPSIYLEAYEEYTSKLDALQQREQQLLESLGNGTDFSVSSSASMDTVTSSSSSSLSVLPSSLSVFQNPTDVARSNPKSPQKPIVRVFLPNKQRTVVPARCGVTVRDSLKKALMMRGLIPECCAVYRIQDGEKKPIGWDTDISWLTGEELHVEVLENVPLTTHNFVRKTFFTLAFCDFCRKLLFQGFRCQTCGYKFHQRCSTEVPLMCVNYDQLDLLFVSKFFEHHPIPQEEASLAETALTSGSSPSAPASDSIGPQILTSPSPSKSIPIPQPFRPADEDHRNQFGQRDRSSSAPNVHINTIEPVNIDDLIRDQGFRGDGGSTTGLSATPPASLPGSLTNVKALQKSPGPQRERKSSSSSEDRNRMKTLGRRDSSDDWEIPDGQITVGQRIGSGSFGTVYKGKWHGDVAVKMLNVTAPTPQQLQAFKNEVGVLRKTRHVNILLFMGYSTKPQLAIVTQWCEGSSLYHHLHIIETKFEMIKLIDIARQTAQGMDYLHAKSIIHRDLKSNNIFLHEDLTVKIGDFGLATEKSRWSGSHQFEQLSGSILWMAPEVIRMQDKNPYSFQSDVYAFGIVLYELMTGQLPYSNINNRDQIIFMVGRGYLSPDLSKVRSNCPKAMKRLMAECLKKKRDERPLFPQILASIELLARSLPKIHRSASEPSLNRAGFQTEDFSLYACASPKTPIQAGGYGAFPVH
Chain of BRAF (P15056 whole entry): as the sequence (P15056 whole entry V600E) above, with E600V counted along it

Usually IC50 stands for the point on the concentration scale where inhibition reaches its midpoint. Usually inhibition stands for the drop in the measured response relative to a control, in per cent. With `O=C(Nc1cc(F)c(F)c(C(=O)c2ccc3ncc(N4CCOCC4)nc3c2)c1)c1ccc(Cl)c(C(F)(F)F)c1` [Compound C146, 4-chloro-N-(3,4-difluoro-5-(3-morpholinoquinoxaline-6-carbonyl)phenyl)-3-(trifluoromethyl)benzamide], the IC50 in assay [1] was 2000 to 5000 nM; in assay [3] (read-out: IC50 against BRAF V600E), greater than 100 nM; in assay [4] (read-out: IC50 against KDR), less than 100 nM; in assay [5], less than 1000 nM. Also, the inhibition at 1 µM in assay [2] was less than 70%; in assay [3] (1 μM compound, read-out: % inhibition at 1 μM against BRAF V600E) it was 70 to 89%; in assay [4] (1 μM compound, read-out: % inhibition at 1 μM against KDR), greater than 89%.

The values are drawn from US10759766B2, “Certain chemical entities, compositions, and methods” (NeuPharma, Inc., priority 2011, dated 2020).
